# Measured values reported in ChEMBL document CHEMBL4002566, “S-substituted 3,5-dinitrophenyl 1,3,4-oxadiazole-2-thiols and tetrazole-5-thiols as highly efficient antitubercular agents” (Eur J Med Chem, 2017).
# Key:
# [1] = tested on: Mycobacterium tuberculosis; test: Antimycobacterial activity against Mycobacterium tuberculosis MDR_CHUV by resazurin reduction microplate assay; format: functional
# [2] = tested on: Mycobacterium tuberculosis; test: Antimycobacterial activity against Mycobacterium tuberculosis H37Rv by broth microdilution method; format: functional
# [3] = tested on: Mycobacterium tuberculosis; test: Antimycobacterial activity against Mycobacterium tuberculosis H37Rv expressing GFP after 7 days; format: functional; conditions: 168 h
# [4] = tested on: Mycobacterium tuberculosis; test: Antimycobacterial activity against Mycobacterium tuberculosis by broth microdilution method; format: functional
# [5] = tested on: Pichia kudriavzevii; test: Antifungal activity against Candida krusei E28 after 24 hrs by broth microdilution method; format: functional; conditions: E28, 24 h
# [6] = tested on: Trichosporon asahii; test: Antifungal activity against Trichosporon asahii 1188 after 24 hrs by broth microdilution method; format: functional; conditions: Trichosporon asahii, 1188, 24 h
# [7] = tested on: Mycobacterium kansasii; test: Antimycobacterial activity against Mycobacterium kansasii CNCTC My 235/80 after 21 days by micromethod; format: functional; conditions: CNCTC My 235/80, 504 h
# [8] = Cytotoxicity against human HepG2 cells assessed as cell viability at 30 uM after 48 hrs by MTS assay relative to control; format: cell-based; conditions: read-out: Activity
# [9] = tested on: Candida tropicalis; test: Antifungal activity against Candida tropicalis 156 after 48 hrs by broth microdilution method; format: functional; conditions: Candida tropicalis, 156, 48 h
# [10] = tested on: Mycobacterium kansasii; test: Antimycobacterial activity against Mycobacterium kansasii 6509/96 clinical isolate after 21 days by micromethod; format: functional; conditions: 6509/96, 504 h
# [11] = tested on: Mycobacterium tuberculosis; test: Antimycobacterial activity against Mycobacterium tuberculosis CNCTC My 331/88 after 14 days by micromethod; format: functional; conditions: CNCTC My 331/88, 336 h
# [12] = tested on: Aspergillus fumigatus; test: Antifungal activity against Aspergillus fumigatus 231 after 48 hrs by broth microdilution method; format: functional; conditions: Aspergillus fumigatus, 231, 48 h
# [13] = tested on: Pseudomonas aeruginosa; test: Antibacterial activity against Pseudomonas aeruginosa ATCC 9027 after 24 hrs by broth microdilution method; format: functional; conditions: ATCC 9027, 24 h
# [14] = tested on: Candida albicans; test: Antifungal activity against Candida albicans ATCC 44859 after 48 hrs by broth microdilution method; format: functional; conditions: ATCC 44859, 48 h
# [15] = tested on: HepG2; test: Cytotoxicity against human HepG2 cells assessed as cell viability after 48 hrs by MTS assay; format: cell-based; conditions: HepG2, 48 h
# [16] = Cytotoxicity against human HuH7 cells assessed as cell viability at 30 uM after 48 hrs by MTS assay relative to control; format: cell-based, Huh-7; conditions: read-out: Activity
# [17] = tested on: Mycobacterium kansasii; test: Antimycobacterial activity against Mycobacterium kansasii 6509/96 clinical isolate after 7 days by micromethod; format: functional; conditions: 6509/96, 168 h
# [18] = tested on: Lichtheimia corymbifera; test: Antifungal activity against Absidia corymbifera 272 after 24 hrs by broth microdilution method; format: functional; conditions: Lichtheimia corymbifera, 272, 24 h
# [19] = tested on: Trichophyton mentagrophytes; test: Antifungal activity against Trichophyton mentagrophytes 445 after 120 hrs by broth microdilution method; format: functional; conditions: Trichophyton mentagrophytes, 445, 120 h
# [20] = Cytotoxicity against human A431 cells assessed as cell viability at 30 uM after 48 hrs by MTS assay relative to control; format: cell-based, A-431; conditions: read-out: Activity
# [21] = tested on: Huh-7; test: Cytotoxicity against human HuH7 cells assessed as cell viability after 48 hrs by MTS assay; format: cell-based; conditions: Huh-7, 48 h
# [22] = tested on: Mycobacterium tuberculosis; test: Antimycobacterial activity against Mycobacterium tuberculosis CNCTC My 331/88 after 21 days by micromethod; format: functional; conditions: CNCTC My 331/88, 504 h
# [23] = tested on: Candida albicans; test: Antifungal activity against Candida albicans ATCC 44859 after 24 hrs by broth microdilution method; format: functional; conditions: ATCC 44859, 24 h
# [24] = tested on: Trichosporon asahii; test: Antifungal activity against Trichosporon asahii 1188 after 48 hrs by broth microdilution method; format: functional; conditions: Trichosporon asahii, 1188, 48 h
# [25] = tested on: Lichtheimia corymbifera; test: Antifungal activity against Absidia corymbifera 272 after 48 hrs by broth microdilution method; format: functional; conditions: Lichtheimia corymbifera, 272, 48 h
# [26] = tested on: Trichophyton mentagrophytes; test: Antifungal activity against Trichophyton mentagrophytes 445 after 72 hrs by broth microdilution method; format: functional; conditions: Trichophyton mentagrophytes, 445, 72 h
# [27] = tested on: Mycobacterium avium; test: Antimycobacterial activity against Mycobacterium avium CNCTC My 330/88 after 14 days by micromethod; format: functional; conditions: CNCTC My 330/88, 336 h
# [28] = tested on: Aspergillus fumigatus; test: Antifungal activity against Aspergillus fumigatus 231 after 24 hrs by broth microdilution method; format: functional; conditions: Aspergillus fumigatus, 231, 24 h
# [29] = tested on: Mycobacterium kansasii; test: Antimycobacterial activity against Mycobacterium kansasii CNCTC My 235/80 after 7 days by micromethod; format: functional; conditions: CNCTC My 235/80, 168 h
# [30] = tested on: A-431; test: Cytotoxicity against human A431 cells assessed as cell viability after 48 hrs by MTS assay; format: cell-based; conditions: A-431, 48 h
# [31] = tested on: Escherichia coli; test: Antibacterial activity against Escherichia coli ATCC 8739 after 24 hrs by broth microdilution method; format: functional; conditions: ATCC 8739, 24 h
# [32] = tested on: Klebsiella pneumoniae; test: Antibacterial activity against extended spectrum beta-lactamase producing Klebsiella pneumoniae HK14368/08 after 24 hrs by broth microdilution method; format: functional; conditions: HK14368/08, 24 h
# [33] = tested on: Mycobacterium kansasii; test: Antimycobacterial activity against Mycobacterium kansasii CNCTC My 235/80 after 14 days by micromethod; format: functional; conditions: CNCTC My 235/80, 336 h
# [34] = tested on: Staphylococcus aureus; test: Antibacterial activity against methicillin-resistant Staphylococcus aureus HK5996/08 after 24 hrs by broth microdilution method; format: functional; conditions: HK5996/08, 24 h
# [35] = tested on: Staphylococcus epidermidis; test: Antibacterial activity against Staphylococcus epidermidis HK6996/08 after 24 hrs by broth microdilution method; format: functional; conditions: HK6996/08, 24 h
# [36] = tested on: Escherichia coli; test: Antibacterial activity against Escherichia coli ATCC 8739 after 48 hrs by broth microdilution method; format: functional; conditions: ATCC 8739, 48 h
# [37] = tested on: Klebsiella pneumoniae; test: Antibacterial activity against extended spectrum beta-lactamase producing Klebsiella pneumoniae HK14368/08 after 48 hrs by broth microdilution method; format: functional; conditions: HK14368/08, 48 h
# [38] = tested on: Klebsiella pneumoniae; test: Antibacterial activity against Klebsiella pneumoniae HK11750/08 after 24 hrs by broth microdilution method; format: functional; conditions: HK11750/08, 24 h
# [39] = tested on: Mycobacterium avium; test: Antimycobacterial activity against Mycobacterium avium CNCTC My 330/88 after 21 days by micromethod; format: functional; conditions: CNCTC My 330/88, 504 h
# [40] = tested on: Staphylococcus aureus; test: Antibacterial activity against Staphylococcus aureus ATCC 6538 after 48 hrs by broth microdilution method; format: functional; conditions: ATCC 6538, 48 h
# [41] = Selectivity index, ratio of IC50 for human HepG2 cells to MIC for Mycobacterium tuberculosis; format: toxicity; conditions: read-out: Selectivity Index
# [42] = tested on: Staphylococcus aureus; test: Antibacterial activity against methicillin-resistant Staphylococcus aureus HK5996/08 after 48 hrs by broth microdilution method; format: functional; conditions: HK5996/08, 48 h
# [43] = tested on: Mycobacterium kansasii; test: Antimycobacterial activity against Mycobacterium kansasii 6509/96 clinical isolate after 14 days by micromethod; format: functional; conditions: 6509/96, 336 h
# [44] = tested on: Staphylococcus epidermidis; test: Antibacterial activity against Staphylococcus epidermidis HK6996/08 after 48 hrs by broth microdilution method; format: functional; conditions: HK6996/08, 48 h
# [45] = tested on: Nakaseomyces glabratus; test: Antifungal activity against Candida glabrata 20/I after 48 hrs by broth microdilution method; format: functional
# [46] = tested on: Enterococcus sp.; test: Antibacterial activity against Enterococcus sp. HK14365/08 after 48 hrs by broth microdilution method; format: functional; conditions: HK14365/08, 48 h
# [47] = tested on: Staphylococcus aureus; test: Antibacterial activity against Staphylococcus aureus ATCC 6538 after 24 hrs by broth microdilution method; format: functional; conditions: ATCC 6538, 24 h
# [48] = tested on: Pseudomonas aeruginosa; test: Antibacterial activity against Pseudomonas aeruginosa ATCC 9027 after 48 hrs by broth microdilution method; format: functional; conditions: ATCC 9027, 48 h
# [49] = tested on: Nakaseomyces glabratus; test: Antifungal activity against Candida glabrata 20/I after 24 hrs by broth microdilution method; format: functional
# [50] = tested on: Pichia kudriavzevii; test: Antifungal activity against Candida krusei E28 after 48 hrs by broth microdilution method; format: functional; conditions: E28, 48 h
# [51] = tested on: Candida tropicalis; test: Antifungal activity against Candida tropicalis 156 after 24 hrs by broth microdilution method; format: functional; conditions: Candida tropicalis, 156, 24 h
# [52] = tested on: Klebsiella pneumoniae; test: Antibacterial activity against Klebsiella pneumoniae HK11750/08 after 48 hrs by broth microdilution method; format: functional; conditions: HK11750/08, 48 h
# [53] = tested on: Enterococcus sp.; test: Antibacterial activity against Enterococcus sp. HK14365/08 after 24 hrs by broth microdilution method; format: functional; conditions: HK14365/08, 24 h
# [54] = tested on: MDCK; test: Cytotoxicity against MDCK cells assessed as cell viability after 48 hrs by MTS assay; format: cell-based; conditions: Canis lupus familiaris
# [55] = Cytotoxicity against MDCK cells assessed as cell viability at 30 uM after 48 hrs by MTS assay relative to control; format: cell-based, Canis lupus familiaris; conditions: dog, read-out: Activity
# [56] = tested on: Mycobacterium tuberculosis; test: Antimycobacterial activity against Mycobacterium tuberculosis after 14 days; format: functional; conditions: 336 h
# [57] = tested on: Mycobacterium tuberculosis; test: Antimycobacterial activity against Mycobacterium tuberculosis H37Rv after 7 days by resazurin reduction microplate assay; format: functional; conditions: 168 h
smiles,measurement,setting,value
O=c1nc(N2CCN(CC3CCCCC3)CC2)sc2c([N+](=O)[O-])cc(C(F)(F)F)cc12 [MACOZINONE],MIC,[1],0.0004 µM
C[C@H]1COC2(CCN(c3nc(=O)c4cc(C(F)(F)F)cc([N+](=O)[O-])c4s3)CC2)O1 [BTZ-043],MIC,[2],0.001 µM
Cn1nc([N+](=O)[O-])nc1Oc1ccc(C(C)(C)C)cc1,MIC,[3],0.5 µM
CCC1Cn2cc([N+](=O)[O-])nc2O1 (stereo not drawn),MIC,[4],0.2 µM
O=[N+]([O-])c1cc(-c2nnc(SCc3ccc(Cl)c(Cl)c3)o2)cc([N+](=O)[O-])c1,MIC,[5],> 125 µM
same,MIC,[6],> 125 µM
same,MIC,[7],0.03 µM
same,"viability at 48 h, 30 µM",[8],125%
same,MIC,[9],> 125 µM
same,MIC,[10],0.03 µM
same,MIC,[11],0.03 µM
same,MIC,[12],> 125 µM
same,MIC,[13],> 125 µM
same,MIC,[14],> 125 µM
same,IC50,[15],> 30 µM
same,"viability at 48 h, 30 µM",[16],153%
same,MIC,[17],0.03 µM
same,MIC,[18],> 125 µM
same,MIC,[19],> 125 µM
same,"viability at 48 h, 30 µM",[20],126%
same,IC50,[21],> 30 µM
same,MIC,[22],0.03 µM
same,MIC,[23],> 125 µM
same,MIC,[24],> 125 µM
same,MIC,[25],> 125 µM
same,MIC,[26],> 125 µM
same,MIC,[27],16 µM
same,MIC,[28],> 125 µM
same,MIC,[29],0.03 µM
same,IC50,[30],> 30 µM
same,MIC,[31],> 125 µM
same,MIC,[32],> 125 µM
same,MIC,[33],0.03 µM
same,MIC,[34],> 125 µM
same,MIC,[35],> 125 µM
same,MIC,[36],> 125 µM
same,MIC,[37],> 125 µM
same,MIC,[38],> 125 µM
same,MIC,[39],32 µM
same,MIC,[40],> 125 µM
same,selectivity ratio,[41],> 1000
same,MIC,[42],> 125 µM
same,MIC,[43],0.03 µM
same,MIC,[44],> 125 µM
same,MIC,[45],> 125 µM
same,MIC,[46],> 125 µM
same,MIC,[47],> 125 µM
same,MIC,[48],> 125 µM
same,MIC,[49],> 125 µM
same,MIC,[50],> 125 µM
same,MIC,[51],> 125 µM
same,MIC,[52],> 125 µM
same,MIC,[53],> 125 µM
same,IC50,[54],> 30 µM
same,"viability at 48 h, 30 µM",[55],91%
COc1ccc(OCCNC(=O)c2cc([N+](=O)[O-])cc([N+](=O)[O-])c2)cc1,MIC,[3],0.2 µM
C[C@]1(COc2ccc(N3CCC(Oc4ccc(OC(F)(F)F)cc4)CC3)cc2)Cn2cc([N+](=O)[O-])nc2O1 [DELAMANID],MIC,[56],0.023 µM
Cc1nc2cc(Br)cc([N+](=O)[O-])c2nc1-c1ccccc1,MIC,[57],3.1 µM
